From patent publication US20070021434A1, “NON-NUCLEOSIDE ANTI-HEPACIVIRUS AGENTS AND USES THEREOF” (Migenix Inc., priority 2005, published 2007) come the findings set out here.

The structures appear in SMILES notation. Bounds are passed on as bounds.

The experiment deals with HCV RdRp (NS5B) (UniProt P26663). Format: biochemical, hepatitis C virus.
Chain of HCV RdRp (NS5B) (P26663 whole entry, looked up): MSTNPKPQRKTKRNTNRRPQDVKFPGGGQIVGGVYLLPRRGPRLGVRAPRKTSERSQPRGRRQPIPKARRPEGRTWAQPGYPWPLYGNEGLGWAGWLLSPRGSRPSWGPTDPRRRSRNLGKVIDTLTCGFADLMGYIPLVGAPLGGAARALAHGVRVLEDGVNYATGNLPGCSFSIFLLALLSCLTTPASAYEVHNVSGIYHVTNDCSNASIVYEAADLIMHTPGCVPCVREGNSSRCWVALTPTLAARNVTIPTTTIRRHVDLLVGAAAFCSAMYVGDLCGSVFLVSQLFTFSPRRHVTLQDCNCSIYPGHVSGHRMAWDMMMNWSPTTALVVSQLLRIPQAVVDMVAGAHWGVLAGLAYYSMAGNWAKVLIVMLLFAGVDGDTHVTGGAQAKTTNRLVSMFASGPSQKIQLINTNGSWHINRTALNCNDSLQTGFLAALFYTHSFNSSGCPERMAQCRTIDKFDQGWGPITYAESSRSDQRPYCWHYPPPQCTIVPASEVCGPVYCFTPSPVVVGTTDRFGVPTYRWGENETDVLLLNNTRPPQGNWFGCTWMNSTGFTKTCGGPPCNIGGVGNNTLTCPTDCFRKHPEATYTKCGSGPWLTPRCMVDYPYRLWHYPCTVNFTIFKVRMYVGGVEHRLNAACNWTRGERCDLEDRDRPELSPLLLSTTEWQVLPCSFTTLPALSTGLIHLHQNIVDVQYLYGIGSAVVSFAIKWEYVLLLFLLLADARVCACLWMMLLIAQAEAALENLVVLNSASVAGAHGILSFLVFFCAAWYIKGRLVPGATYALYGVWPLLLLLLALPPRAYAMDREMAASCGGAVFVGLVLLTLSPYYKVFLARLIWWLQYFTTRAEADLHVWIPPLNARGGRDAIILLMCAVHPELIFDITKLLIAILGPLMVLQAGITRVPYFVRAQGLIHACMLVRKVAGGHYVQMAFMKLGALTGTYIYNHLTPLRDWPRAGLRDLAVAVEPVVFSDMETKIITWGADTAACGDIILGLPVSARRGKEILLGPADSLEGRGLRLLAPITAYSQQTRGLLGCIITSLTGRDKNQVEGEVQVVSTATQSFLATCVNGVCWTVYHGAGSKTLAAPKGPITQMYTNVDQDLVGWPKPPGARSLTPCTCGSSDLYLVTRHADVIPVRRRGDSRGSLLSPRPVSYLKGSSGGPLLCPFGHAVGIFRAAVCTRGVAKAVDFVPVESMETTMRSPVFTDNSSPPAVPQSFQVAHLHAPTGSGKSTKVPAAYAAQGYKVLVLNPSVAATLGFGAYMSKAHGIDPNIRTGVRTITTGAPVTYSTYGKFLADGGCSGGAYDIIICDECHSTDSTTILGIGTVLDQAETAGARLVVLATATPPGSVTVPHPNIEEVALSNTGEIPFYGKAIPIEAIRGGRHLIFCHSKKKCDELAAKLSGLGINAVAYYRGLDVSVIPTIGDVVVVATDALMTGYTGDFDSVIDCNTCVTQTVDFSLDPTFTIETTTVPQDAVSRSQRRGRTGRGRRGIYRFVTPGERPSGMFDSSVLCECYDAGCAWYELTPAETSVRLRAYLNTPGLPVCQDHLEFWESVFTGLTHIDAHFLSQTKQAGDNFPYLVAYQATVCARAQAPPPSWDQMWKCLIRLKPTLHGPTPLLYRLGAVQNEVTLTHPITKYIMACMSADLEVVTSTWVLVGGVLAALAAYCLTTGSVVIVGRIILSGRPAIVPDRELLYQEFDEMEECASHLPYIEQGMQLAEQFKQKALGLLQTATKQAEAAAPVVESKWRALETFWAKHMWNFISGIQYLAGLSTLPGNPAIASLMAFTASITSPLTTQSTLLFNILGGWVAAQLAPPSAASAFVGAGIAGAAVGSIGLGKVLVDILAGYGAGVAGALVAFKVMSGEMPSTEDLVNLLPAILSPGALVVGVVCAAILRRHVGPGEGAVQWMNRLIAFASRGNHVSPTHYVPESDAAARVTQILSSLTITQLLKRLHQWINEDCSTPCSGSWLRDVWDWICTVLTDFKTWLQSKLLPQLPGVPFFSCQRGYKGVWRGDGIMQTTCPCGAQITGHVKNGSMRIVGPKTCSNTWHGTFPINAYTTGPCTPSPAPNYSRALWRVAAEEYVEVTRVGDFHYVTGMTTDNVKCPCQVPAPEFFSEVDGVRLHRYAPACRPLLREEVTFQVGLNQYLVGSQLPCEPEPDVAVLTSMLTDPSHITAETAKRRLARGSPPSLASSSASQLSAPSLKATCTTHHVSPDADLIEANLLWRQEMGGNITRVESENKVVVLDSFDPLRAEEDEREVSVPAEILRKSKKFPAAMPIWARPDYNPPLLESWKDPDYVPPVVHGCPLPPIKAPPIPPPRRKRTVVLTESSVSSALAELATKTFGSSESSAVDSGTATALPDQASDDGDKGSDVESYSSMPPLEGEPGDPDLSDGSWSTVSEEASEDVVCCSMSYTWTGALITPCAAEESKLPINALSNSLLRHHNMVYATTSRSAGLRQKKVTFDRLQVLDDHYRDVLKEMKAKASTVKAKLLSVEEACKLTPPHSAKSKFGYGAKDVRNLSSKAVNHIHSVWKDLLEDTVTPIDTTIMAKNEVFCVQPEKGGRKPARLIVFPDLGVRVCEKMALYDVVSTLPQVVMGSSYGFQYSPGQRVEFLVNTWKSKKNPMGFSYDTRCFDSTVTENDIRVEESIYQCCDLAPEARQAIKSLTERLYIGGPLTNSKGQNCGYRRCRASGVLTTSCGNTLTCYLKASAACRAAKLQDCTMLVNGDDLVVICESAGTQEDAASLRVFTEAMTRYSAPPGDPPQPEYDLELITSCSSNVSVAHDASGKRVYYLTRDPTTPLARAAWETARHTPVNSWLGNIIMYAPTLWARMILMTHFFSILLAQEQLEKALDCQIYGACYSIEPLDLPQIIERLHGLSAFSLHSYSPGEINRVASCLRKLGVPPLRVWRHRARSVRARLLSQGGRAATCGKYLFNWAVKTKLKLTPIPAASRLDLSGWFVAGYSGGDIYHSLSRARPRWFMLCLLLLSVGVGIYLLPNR
The compound `NCCCC[C@@H](NC(=O)OCC1c2ccccc2-c2ccccc21)C(=O)Nc1ccc(-c2ccccc2)cc1` [Compound 144, (R)-[5-AMINO-1-(BIPHENYL-4-YLCARBAMOYL)-PENTYL]-CARBAMIC ACID 9H-FLUOREN-9-YLMETHYL ESTER] registered a 50% inhibitory concentration (IC50) below 10 µM.
To `Cc1ccc(NC(=O)C(Cc2ccc(CN)cc2)NC(=O)Nc2ccc3c(c2)Cc2ccccc2-3)cc1` [Compound 147, (S)-3-(4-AMINOMETHYL-PHENYL)-2-[3-(9H-FLUOREN-2-YL)-UREIDO]-N-P-TOLYL-PROPIONAMIDE] belongs below 10 µM; to `CC(C)(C)c1ccc(NC(=O)[C@H](Cc2ccc(CN)cc2)NC(=O)NCc2ccccc2)cc1` [Compound 148, (S)-3-(4-AMINOMETHYL-PHENYL)-2-(3-BENZYL-UREIDO)-N-(4-TERT-BUTYL-PHENYL)-PROPIONAMIDE], above 50 µM.
Under `CC(C)(C)c1ccc(NC(=O)[C@H](Cc2ccc(CN)cc2)NC(=O)NCc2ccc(Cl)c(Cl)c2)cc1` [Compound 149, (S)-3-(4-AMINOMETHYL-PHENYL)-N-(4-TERT-BUTYL-PHENYL)-2-[3-(3,4-DICHLORO-BENZYL)-UREIDO]-PROPIONAMIDE] stands below 10 µM; under `CC(C)(C)c1ccc(NC(=O)[C@H](Cc2ccc(CN)cc2)NC(=O)Nc2ccc(-c3ccccc3)cc2)cc1` [Compound 150, (S)-3-(4-AMINOMETHYL-PHENYL)-2-(3-BIPHENYL-4-YL-UREIDO)-N-(4-TERT-BUTYL-PHENYL)-PROPIONAMIDE], below 10 µM.
Under `CC(C)(C)c1ccc(NC(=O)[C@H](Cc2ccc(CN)cc2)NC(=O)NC(c2ccccc2)c2ccccc2)cc1` [Compound 151, (S)-3-(4-AMINOMETHYL-PHENYL)-2-(3-BENZHYDRYL-UREIDO)-N-(4-TERT-BUTYL-PHENYL)-PROPIONAMIDE] stands below 10 µM; under `CC(C)(C)c1ccc(NC(=O)[C@H](Cc2ccc(CN)cc2)NC(=O)Nc2ccc3c(c2)Cc2ccccc2-3)cc1` [Compound 152, (S)-3-(4-AMINOMETHYL-PHENYL)-N-(4-TERT-BUTYL-PHENYL)-2-[3-(9H-FLUOREN-2-YL)-UREIDO]-PROPIONAMIDE], below 10 µM.
Regarding `NCCCC[C@H](NC(=O)NCc1ccccc1)C(=O)Nc1ccc(CN(C(=O)c2ccco2)C2CCCCC2)cc1` [Compound 153, (S)-FURAN-2-CARBOXYLIC ACID {4-[6-AMINO-2-(3-BENZYL-UREIDO)-HEXANOYLAMINO]-BENZYL}-CYCLOHEXYL-AMIDE], the 50% inhibitory concentration (IC50) was above 50 µM.
In turn, `NCCCC[C@H](NC(=O)NCc1ccc(Cl)c(Cl)c1)C(=O)Nc1ccc(CN(C(=O)c2ccco2)C2CCCCC2)cc1` [Compound 154, (S)-FURAN-2-CARBOXYLIC ACID (4-{6-AMINO-2-[3-(3,4-DICHLORO-BENZYL)-UREIDO]-HEXANOYLAMINO}-BENZYL)-CYCLOHEXYL-AMIDE] came in with an IC50 of 10 to 50 µM.
With `O=C(CC1CNCCN1C(=O)OCC1c2ccccc2-c2ccccc21)Nc1ccc(C2CCCCC2)cc1` (stereo not shown) [Compound 155, 2-[(4-CYCLOHEXYL-PHENYLCARBAMOYL)-METHYL]-PIPERAZINE-1-CARBOXYLIC ACID 9H-FLUOREN-9-YLMETHYL ESTER], the IC50 was 10 to 50 µM.
Under `O=C(Nc1ccc(C2CCCCC2)cc1)C1CN(C(=O)OCC2c3ccccc3-c3ccccc32)CCN1` (stereo not shown) [Compound 157, 3-(4-CYCLOHEXYL-PHENYLCARBAMOYL)-PIPERAZINE-1-CARBOXYLIC ACID 9H-FLUOREN-9-YLMETHYL ESTER] stands above 50 µM; under `O=C(CC1CNCCN1C(=O)NCc1ccccc1)Nc1ccc(C2CCCCC2)cc1` (stereo not shown) [Compound 158, 2-[(4-CYCLOHEXYL-PHENYLCARBAMOYL)-METHYL]-PIPERAZINE-1-CARBOXYLIC ACID BENZYLAMIDE], 10 to 50 µM.
To `O=C(CC1CNCCN1C(=O)NCc1ccc(Cl)cc1)Nc1ccc(C2CCCCC2)cc1` (stereo not shown) [Compound 159, 2-[(4-CYCLOHEXYL-PHENYLCARBAMOYL)-METHYL]-PIPERAZINE-1-CARBOXYLIC ACID 4-CHLORO-BENZYLAMIDE] belongs 10 to 50 µM.

Usually IC50 stands for the concentration that inhibits the measured activity by half. Low readings indicate higher potency, high ones lower potency.
